Drawing on patent US20210269451A1, “PYRIDINYL HETEROCYCLYL COMPOUNDS FOR THE TREATMENT OF AUTOIMMUNE DISEASE” (Hoffmann-La Roche Inc., priority 2018, published 2021), this text covers IC50 for 35 molecules.

For the assay, the target named is T1, human TLR7 (Homo sapiens, UniProt Q9NYK1).
T1 construct: host or cells: HEK293-Blue-hTLR-7 (HEK293)
T1 sequence (Q9NYK1 27-1049): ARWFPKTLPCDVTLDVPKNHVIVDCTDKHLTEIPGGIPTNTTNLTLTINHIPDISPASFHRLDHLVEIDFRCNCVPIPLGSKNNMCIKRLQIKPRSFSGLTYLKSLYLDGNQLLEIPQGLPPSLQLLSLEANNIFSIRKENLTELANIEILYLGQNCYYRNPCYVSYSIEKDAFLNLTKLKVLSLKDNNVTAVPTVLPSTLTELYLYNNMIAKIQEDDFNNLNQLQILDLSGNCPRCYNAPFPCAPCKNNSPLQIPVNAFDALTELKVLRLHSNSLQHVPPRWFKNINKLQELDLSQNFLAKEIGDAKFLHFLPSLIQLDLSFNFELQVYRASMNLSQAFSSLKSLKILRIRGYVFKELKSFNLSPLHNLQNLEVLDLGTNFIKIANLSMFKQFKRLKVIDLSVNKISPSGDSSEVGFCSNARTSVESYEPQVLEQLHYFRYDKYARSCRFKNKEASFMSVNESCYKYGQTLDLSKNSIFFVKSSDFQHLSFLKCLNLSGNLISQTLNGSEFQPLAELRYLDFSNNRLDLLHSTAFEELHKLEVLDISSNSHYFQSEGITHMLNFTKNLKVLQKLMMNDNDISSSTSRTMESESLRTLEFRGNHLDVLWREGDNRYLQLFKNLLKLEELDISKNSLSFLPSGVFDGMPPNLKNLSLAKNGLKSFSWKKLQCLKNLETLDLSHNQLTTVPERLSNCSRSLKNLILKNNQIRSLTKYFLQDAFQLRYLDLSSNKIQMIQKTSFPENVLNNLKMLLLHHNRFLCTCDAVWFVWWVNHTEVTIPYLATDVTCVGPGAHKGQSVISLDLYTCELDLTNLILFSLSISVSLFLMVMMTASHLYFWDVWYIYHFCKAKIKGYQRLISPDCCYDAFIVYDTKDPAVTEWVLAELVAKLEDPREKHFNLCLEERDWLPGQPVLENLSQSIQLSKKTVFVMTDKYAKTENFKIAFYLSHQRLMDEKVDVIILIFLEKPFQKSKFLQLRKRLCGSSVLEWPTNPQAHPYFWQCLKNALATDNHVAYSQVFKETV
Nature of the assay: HEK293-Blue-hTLR-7 cells assay. The settings on record: HEK293-Blue-hTLR7 cells, R848 stimulation, 20 hrs, SEAP reporter; read-out: HEK/hTLR7 IC50. The format is cell-based. Here is the method:
The following tests were carried out in order to determine the activity of the compounds of formula (I) and (Ia) in HEK293-Blue-hTLR-7/8/9 cells assay.
HEK293-Blue-hTLR-7 cells assay:
A stable HEK293-Blue-hTLR-7 cell line was purchased from InvivoGen (Cat. #: hkb-htlr7, San Diego, Calif., USA). These cells were originally designed for studying the stimulation of human TLR7 by monitoring the activation of NE-κB. A SEAP (secreted embryonic alkaline phosphatase) reporter gene was placed under the control of the IFN-β minimal promoter fused to five NE-κB and AP-1-binding sites. The SEAP was induced by activating NE-κB and AP-1 via stimulating HEK-Blue hTLR7 cells with TLR7 ligands. Therefore the reporter expression was declined by TLR7 antagonist under the stimulation of a ligand, such as R848 (Resiquimod), for incubation of 20 hrs. The cell culture supernatant SEAP reporter activity was determined using QUANTI-Blue™ kit (Cat. #: rep-qbl, Invivogen, San Diego, Ca, USA) at a wavelength of 640 nm, a detection medium that turns purple or blue in the presence of alkaline phosphatase.
HEK293-Blue-hTLR7 cells were incubated at a density of 250,000-450,000 cells/mL in a volume of 170 μL in a 96-well plate in Dulbecco's Modified Eagle's medium (DMEM) containing 4.5 g/L glucose, 50 U/mL penicillin, […], […], 2 mM L-glutamine, 10% (v/v) heat-inactivated fetal bovine serum with addition of 20 μL test compound in a serial dilution in the presence of final DMSO at 1% and 10 μL of 20 uM R848 in above DMEM, perform incubation under 37° C. in a CO2 incubator for 20 hrs. Then 20 μL of the supernatant from each well was incubated with 180 μL Quanti-blue substrate solution at 37° C. for 2 hrs and the absorbance was read at 620˜655 nm using a spectrophotometer. The signalling pathway that TLR7 activation leads to downstream NE-κB activation has been widely accepted, and therefore similar reporter assay was modified for evaluating TLR7 antagonist.

Take `Cc1cc(N2CCOC3CN(CC4CN(c5ccc(C#N)c6ncccc56)CC(C)O4)CC32)cc(C)n1` (single isomer, unassigned) [Example 17A]: the IC50 was under 3 nM.

`Cc1cc(N2CCOC3CN(CC4CN(c5ccc(C#N)c6ncccc56)CC(C)O4)CC32)cc(C)n1` (single isomer, unassigned) [Example 17B]: the IC50 was found to be 11 nM.

As to `Cc1cc(N2CC3(CN(C[C@H]4CN(c5ccc(C#N)c6ncccc56)C[C@@H](C)O4)C3)C2)cc(CO)n1` [Example 1, 5-[(2S,6R)-2-[[2-[2-(hydroxymethyl)-6-methyl-4-pyridyl]-2,6-diazaspiro[3.3]heptan-6-yl]methyl]-6-methyl-morpholin-4-yl]quinoline-8-carbonitrile], the IC50 is 28 nM.

As for `C[C@@H]1CN(c2ccc(C#N)c3ncccc23)C[C@H](CN2CC3(C2)CN(c2ccnc(C4CC4)c2)CCO3)O1` [Example 3, 5-[(2S,6R)-2-[[8-(2-cyclopropyl-4-pyridyl)-5-oxa-2,8-diazaspiro[3.5]nonan-2-yl]methyl]-6-methyl-morpholin-4-yl]quinoline-8-carbonitrile], the IC50 is under 3 nM.

For the molecule `Cc1cc(N2CCN(C[C@H]3CN(c4ccc(C#N)c5ncccc45)C[C@@H](C)O3)[C@@H](C)C2)cc(CO)n1` [Example 4A], the IC50 is 9 nM.

For the molecule `Cc1cc(N2CCN(C[C@H]3CN(c4ccc(C#N)c5ncccc45)C[C@@H](C)O3)[C@H](C)C2)cc(CO)n1` [Example 4B], the IC50 was determined as 10 nM.

With `Cc1cc(NC2CCN(C[C@H]3CN(c4ccc(C#N)c5ncccc45)C[C@@H](C)O3)CC2)cc(CO)n1` [Example 5], the IC50 came out at 59 nM.

On to `Cc1cc(NC2CCN(C[C@H]3CN(c4ccc(C#N)c5ncccc45)C[C@@H](C)O3)C2)cc(CO)n1` (some centres unmarked) [Example 6], for which the IC50 was found to be 44 nM.

As for `Cc1cc(NC2CN(C[C@H]3CN(c4ccc(C#N)c5ncccc45)C[C@@H](C)O3)C2)cc(C)n1` [Example 7], the IC50 amounted to 26 nM.

Take `Cc1cc(N2CCC23CN(C[C@H]2CN(c4ccc(C#N)c5ncccc45)C[C@@H](C)O2)C3)cc(C)n1` [Example 8]: the IC50 worked out at 7 nM.

Regarding `Cc1cc(N2CCC3(CN(C[C@H]4CN(c5ccc(C#N)c6ncccc56)C[C@@H](C)O4)C3)C2)cc(C)n1` [Example 9], the IC50 was 16 nM.

Regarding `Cc1cc(N2C[C@H]3CN(C[C@H]4CN(c5ccc(C#N)c6ncccc56)C[C@@H](C)O4)C[C@H]3C2)cc(CO)n1` [Example 10], the IC50 is 57 nM.

For `Cc1cc(N(C)C2CN(C[C@H]3CN(c4ccc(C#N)c5ncccc45)C[C@@H](C)O3)C2)cc(C)n1` [Example 11], the IC50 stood at 8 nM.

Consider `Cc1cc(N2CCC23CN(C[C@H]2CN(c4ccc(C#N)c5ncccc45)C[C@@H](C)O2)C3)cc(CO)n1` [Example 12], for which the IC50 turned out to be 13 nM.

Regarding `Cc1cc(N2CCOC3(CN(C[C@H]4CN(c5ccc(C#N)c6ncccc56)C[C@@H](C)O4)C3)C2)cc(C)n1` [Example 14], the IC50 is under 3 nM.

`Cc1cc(N2CCC23CN(C[C@H]2CN(c4ccc(C#N)c5ncccc45)C[C@@H](C)O2)C3)ccn1` [Example 15]: the IC50 is 7 nM.

As to `Cc1cc(N2CCOC3(CN(C[C@H]4CN(c5ccc(C#N)c6ncccc56)C[C@@H](C)O4)C3)C2)ccn1` [Example 16], the IC50 is under 3 nM.

Consider `C[C@@H]1CN(c2ccc(C#N)c3ncccc23)C[C@H](CN2CCN(c3ccnc(N)c3)CC2)O1` [Example 19, 5-[(2S,6R)-2-[[4-(2-amino-4-pyridyl)piperazin-1-yl]methyl]-6-methyl-morpholin-4-yl]quinoline-8-carbonitrile], for which the IC50 amounted to 6 nM.

In the case of `C[C@@H]1CN(c2ccc(C#N)c3ncccc23)C[C@H](CNC2CCN(c3ccnc(N)c3)CC2)O1` [Example 20, 5-[(2S,6R)-2-[[[1-(2-amino-4-pyridyl)-4-piperidyl]amino]methyl]-6-methyl-morpholin-4-yl]quinoline-8-carbonitrile], the IC50 is 200 nM.

With `C[C@@H]1CN(c2ccc(C#N)c3ncccc23)C[C@H](CN[C@@H]2CCCN(c3ccnc(N)c3)C2)O1` [Example 21, 5-[(2S,6R)-2-[[[(3R)-1-(2-amino-4-pyridyl)-3-piperidyl]amino]methyl]-6-methyl-morpholin-4-yl]quinoline-8-carbonitrile], the IC50 was 62 nM.

For the molecule `C[C@@H]1CN(c2ccc(C#N)c3ncccc23)C[C@H](CN[C@H]2CCCN(c3ccnc(N)c3)C2)O1` [Example 22], the IC50 was 37 nM.

Consider `Cc1cc(N2CCC(NC[C@H]3CN(c4ccc(C#N)c5ncccc45)C[C@@H](C)O3)CC2)cc(CO)n1` [Example 23], for which the IC50 was 229 nM.

As for `Cc1cc(N2CCC[C@@H](NC[C@H]3CN(c4ccc(C#N)c5ncccc45)C[C@@H](C)O3)C2)cc(CO)n1` [Example 24], the IC50 is 26 nM.

As to `Cc1cc(N2CCC[C@H](NC[C@H]3CN(c4ccc(C#N)c5ncccc45)C[C@@H](C)O3)C2)cc(CO)n1` [Example 25], the IC50 turned out to be 34 nM.

On to `Cc1cc(N2CC[C@@H](NC[C@H]3CN(c4ccc(C#N)c5ncccc45)C[C@@H](C)O3)C2)cc(CO)n1` [Example 28], for which the IC50 was determined as 122 nM.

As for `Cc1cc(N2CC[C@H](NC[C@H]3CN(c4ccc(C#N)c5ncccc45)C[C@@H](C)O3)C2)cc(CO)n1` [Example 29], the IC50 came out at 156 nM.

`Cc1cc(N2CC(NC[C@H]3CN(c4ccc(C#N)c5ncccc45)C[C@@H](C)O3)C2)cc(CO)n1` [Example 30]: the IC50 was found to be 65 nM.

Turning to `Cc1cc(N2CC[C@H](F)[C@H](NC[C@H]3CN(c4ccc(C#N)c5ncccc45)C[C@@H](C)O3)C2)cc(CO)n1` [Example 33], the IC50 was 12 nM.

On to `Cc1cc(N2CC[C@@H](F)[C@H](NC[C@H]3CN(c4ccc(C#N)c5ncccc45)C[C@@H](C)O3)C2)cc(CO)n1` [Example 34], for which the IC50 was 12 nM.

In the case of `Cc1cc(N2CCC[C@@H](N(C)C[C@H]3CN(c4ccc(C#N)c5ncccc45)C[C@@H](C)O3)C2)cc(CO)n1` [Example 35], the IC50 was 17 nM.

Consider `Cc1cc(N2CC(NC[C@H]3CN(c4ccc(C#N)c5ncccc45)C[C@@H](C)O3)CC(F)(F)C2)cc(CO)n1` (some centres unmarked) [Example 36], for which the IC50 turned out to be 17 nM.

Take `Cc1cc(N2CC(N(C)C[C@H]3CN(c4ccc(C#N)c5ncccc45)C[C@@H](C)O3)C2)cc(CO)n1` [Example 37]: the IC50 is 34 nM.

`Cc1cc(N2CCC[C@H](N(C)C[C@H]3CN(c4ccc(C#N)c5ncccc45)C[C@@H](C)O3)C2)cc(CO)n1` [Example 38]: the IC50 was 35 nM.

`Cc1cc(N2CCN(C[C@H]3CN(c4ccc(C#N)c5ncccc45)C[C@@H](C)O3)CC2)cc(N)n1` [Example 40, 5-[(2S,6R)-2-[[4-(2-amino-6-methyl-4-pyridyl)piperazin-1-yl]methyl]-6-methyl-morpholin-4-yl]quinoline-8-carbonitrile]: the IC50 is 8 nM.

As for `CNc1cc(N2CCN(C[C@H]3CN(c4ccc(C#N)c5ncccc45)C[C@@H](C)O3)CC2)cc(C)n1` [Example 42, 5-[(2R,6S)-2-methyl-6-[[4-[2-methyl-6-(methylamino)-4-pyridyl]piperazin-1-yl]methyl]morpholin-4-yl]quinoline-8-carbonitrile], the IC50 came to 13 nM.
